From patent publication US11091749B2, “Deimmunized lysostaphin and methods of use” (TRUSTEES OF DARTMOUTH COLLEGE, priority 2014, dated 2021) come the findings set out here.

Assay [1] deals with S. aureus 3425-1. Briefly: MIC assay. The class given is cell-based, Staphylococcus aureus. The conditions noted are these: biological duplicates. The procedure: (§1) The MICs of wild-type lysostaphin and its variants were determined by adding 2-fold serial dilutions of enzymes into wells of a polypropylene 96-well plate (Costar 3879) containing ˜40,000 S. aureus SA113 (or S. aureus 6445, 3425-1, 3425-3) cells in Muller Hinton broth (BD) supplemented with 2% NaCl and 0.1% bovine serum albumin, yielding a total volume of 100 μl. Plates were grown overnight at 37° C. with shaking at 900 rpm on an Orbit P4 orbital shaker (Labnet; Edison, N.J.). […] The assay was performed in triplicate for each enzyme.

Assay [2] has as its system MRSA strain 3425-3. The assay can be described thus: MIC assay. The class given is cell-based, Staphylococcus aureus. The conditions noted are these: biological duplicates. The procedure: as §1
In assay [3] the test system is S. aureus SA113. Briefly: MIC assay. It is filed as cell-based, Staphylococcus aureus. As for the experimental part: as §1
The test system of assay [4] is S. aureus strain SA113. Briefly: MIC activity relative to LST^WT. The following applies: % fold dilution relative to wild type. It is filed as cell-based, Staphylococcus aureus. The procedure: LST and its derivatives were secreted from P. pastoris. Briefly, recombinant Pichia strains were cultured in a 2.5 L bioreactor (Applicon Biotechnology), and the proteins were captured from the supernatant by polyethylene glycol-6000 (PEG-6000) precipitation and purified to homogeneity by SP SEPHAROSE F.F. cation exchange chromatography. Endotoxin was removed from the protein preparation by TRITON-X114 extraction (Liu, et al. (1997) Clin. Biochem. 30:455-63). Protein expression levels were estimated by densitometry analysis of SDS-PAGE gels.

Assay [5] has as its system MRSA strain USA400. Briefly: Efficacy of F13 in immunized mice, MRSA challenge. It is filed as in vivo, DR4 HLA transgenic mice. The following applies: 500 μg i.v. 1 h after 2×10^8 MRSA i.p. The procedure:
The immunogenicity of the F13 variant was compared to wild-type LST in DR4 HLA transgenic mice, i.e., mice bearing partially humanized immune systems. 100 μg of wild-type LST or variant F13 were mixed with complete Freund's adjuvant and injected subcutaneously into DR4 mice. Fourteen days later, antibody titers were measured by ELISA. Variant F13 yielded more than 200-fold lower antibody titers compared to wild-type LST. To assess the impact of antibody titers on antibacterial efficacy, the mice were challenged with an intraperitoneal injection of 2×10^8 MRSA strain USA400, and 1 hour later the mice were treated with 500 μg wild-type LST, variant F13, or PBS, administered as a single bolus intravenous injection. Both mice receiving PBS sham treatments died as did both mice treated with wild-type LST. In contrast, both mice treated with variant F13 survived. Thus, the reduced immunogenicity of F13 conferred enhanced therapeutic efficacy in vivo.

For assay [6], the system named is S. aureus cells. Briefly: Lytic assay using purified protein (SYTOX kinetic assay). It is filed as cell-based, Staphylococcus aureus. As for the experimental part: S. aureus cells were grown either to mid-log or to saturation in tryptic soy broth (TSB) at 37° C. with shaking. The cells were harvested by centrifugation and washed once in phosphate buffered saline (PBS: 2.7 mM KCl, 1.5 mM KH2PO4, 8.9 mM Na2HPO4, 136.9 mM NaCl, pH 7.4). The assay was performed in 96-well, black, clear bottom plates from Greiner Bio-One (Monroe, N.C.). The final (250 μl) reaction was composed of 10 μl of P. pastoris culture supernatant, S. aureus cells at OD600=1.5, and 5 μM SYTOX Green (Thermo Fisher Scientific; Waltham, Mass.), all in PBS. Data were collected using SPECTRAMAX GEMINI Fluorescence Microplate Reader (Molecular Devices; Sunnyvale, Calif.) using an excitation/emission of 504/523 nm, and rates were determined from the slope of the steepest linear portion of the trace. Each assay was performed with 500 ng of commercially-sourced lysostaphin (ssLys) as an internal control.
The activity of purified lysostaphin variants was examined using the SYTOX kinetic assay as previously described in Chapter 2, Section 3.2.6. 200 ng of purified enzyme (instead of culture supernatant) was used in each reaction.

Assay [7] has as its system MRSA strain USA400. Briefly: S. aureus recurrent bacteremia model, in vivo efficacy. More on the design: species or system DR4 mice. The following applies: 500 μg i.v. As for the experimental part: Prior to bacterial challenge, the immune systems of DR4 mice (N=3 per group) were primed 3-times with weekly subcutaneous injections of 100 μg LST^WT or Lib5 variant in sterile phosphate buffered saline (PBS: 2.7 mM KCl, 1.5 mM KH2PO4, 8.9 mM Na2HPO4, 136.9 mM NaCl, pH 7.4). These immunizations and boosts contained no adjuvant. Anti-LST antibody titers were determined as described above. For the first cycle of infection and treatment, mice were challenged with intraperitoneal administration of 2×10^8 CFU Staphylococcus aureus strain USA400 in a 3% suspension of porcine mucin, and one hour later were treated by intravenous tail vein administration of 500 μg of LST^WT or Lib5 variant in sterile PBS. Mice that were rescued by the enzyme treatment underwent subsequent infection and treatment cycles at weekly intervals. To compensate for development of innate murine antibacterial immunity following the first bacterial exposure, mice were challenged with 1×10^9 CFU USA400 in the second and third cycles, but the treatments remained at 500 μg of the appropriate protein. As a control to verify the lethal bacterial dose in each cycle, one mouse was given a sham treatment of PBS.
Using an S. aureus recurrent bacteremia model, the extent to which LST immunogenicity impacted in vivo efficacy was subsequently evaluated. […]

Take “Wild-Type: wild-type lysostaphin (SEQ ID NO:49) produced in P. pastoris; aglycosylated Ser126Pro backbone in the design studies [reference compound]”: in assay [1], the “MIC Strain 3425-1” value is 0.04 µg/mL. Besides, the “MIC Strain 3425-3” value in assay [2] is 0.03 µg/mL. The MIC in assay [3] (S. aureus SA113, purified enzyme) amounted to 0.0351 µg/mL. For the same substance, the “MIC Strain SA113” value in assay [3] (biological duplicates) was found to be 0.02 µg/mL. Also, the “Activity (% WT)” value in assay [4] stood at 100 % WT. For the same substance, in assay [5], the survival result is “died”. Also, in assay [6] (200 ng purified enzyme), the “% Wild-Type Activity” value was 100%. Moreover, in assay [6] (biological duplicates), the “% WT Lytic Rate” value turned out to be 100 ± 30%. In addition, the rescue from infection result is “rescued” in assay [7] (first cycle, 2×10^8 CFU i.p.) and “failed to rescue any of the three treated mice” in assay [7] (second cycle, 10^9 CFU).
